Experimental data published in EPA's ToxRefDB 2.

Key:
[1] = tested on: rabbit; settings: Sub-acute dermal toxicity, new zealand white, Topical, dose end: 21 day, group: systemic
[2] = tested on: rat; settings: Prenatal developmental toxicity study, sprague dawley, Oral, Gavage/Intubation, dose end: 15 GD
[3] = tested on: mouse; settings: Subchronic oral toxicity in rodents, b6c3f1, Feed, dose end: 13 week
[4] = tested on: mouse; settings: Fertility (Segment I); cd1; Oral; Gavage/Intubation; dose end: 1 generation; group: parental; systemic / pathology gross / sperm measure / sperm morphology
[5] = tested on: rat; settings: Subchronic oral toxicity in rodents, fischer, Feed, dose end: 13 week
[6] = tested on: dog; settings: Subchronic oral toxicity in nonrodent, beagle, Capsule, dose end: 13 week, group: systemic, systemic / organ weight / thyroid gland / absolute + systemic / organ weight / thyroid gland / relative to body weight
[7] = tested on: dog; settings: Chronic toxicity, beagle, Oral, Capsule, dose end: 52 week, group: systemic
[8] = tested on: mouse; settings: Carcinogenicity; cd1; Oral; Feed; dose end: 105 week; group: systemic; systemic / pathology microscopic / liver / adenocarcinoma + systemic / pathology microscopic / liver / adenoma + systemic / pathology …
[9] = tested on: mouse; settings: Combined chronic toxicity/carcinogenicity; other; Oral; Feed; dose end: 99 week; group: systemic; systemic / hematology / erythrocyte (rbc) count differential / erythrocyte (rbc) + systemic / hematology / hematocrit (hct) / hematocrit (…
[10] = tested on: rat; settings: Subchronic oral toxicity in rodents, sprague dawley, Feed, dose end: 90 day, group: systemic, systemic / organ weight / liver / absolute + systemic / organ weight / liver / relative to body weight + systemic / clinical chemistry / …
[11] = tested on: rat; settings: Prenatal developmental toxicity study, sprague dawley, Oral, Gavage/Intubation, dose end: 15 GD; remark: listed apart in the source
[12] = tested on: rabbit; settings: Prenatal developmental toxicity study, new zealand white, Oral, Gavage/Intubation, dose end: 19 GD
[13] = tested on: rat; settings: Combined chronic toxicity/carcinogenicity, fischer, Oral, Feed, dose end: 24 month, group: systemic
[14] = tested on: rat; settings: Prenatal developmental toxicity study, sprague dawley, Oral, Gavage/Intubation, dose end: 16 GD
[15] = tested on: rabbit; settings: Prenatal developmental toxicity study, new zealand white, Dermal, Topical, dose end: 18 GD
[16] = tested on: rat; settings: Prenatal developmental toxicity study, sprague dawley, Oral, Gavage/Intubation, dose end: 16 GD; remark: listed apart in the source
[17] = tested on: rat; settings: Prenatal developmental toxicity study, wistar, Oral, Gavage/Intubation, dose end: 17 GD
[18] = tested on: guinea-pig; settings: Subchronic dermal toxicity, hartley, Topical, dose end: 13 week, group: systemic
[19] = systemic / clinical chemistry / glucose / glucose
[20] = systemic / in life observation / clinical signs / desquamation + systemic / in life observation / clinical signs / erythema + systemic / in …
[21] = group: developmental, developmental / developmental malformation / bone / short supernumerary + developmental / developmental malformation / eye / anophthalmia + …
[22] = group: maternal, systemic / in life observation / body weight / body weight gain + systemic / in life observation / food consumption / food consumption
[23] = group: maternal, systemic / in life observation / body weight / body weight gain + systemic / in life observation / food consumption / food consumption + …
[24] = group: maternal, reproductive / reproductive performance / estrous cycle / length
[25] = group: systemic, systemic / in life observation / body weight / body weight + systemic / in life observation / clinical signs / drooping eyelids (ptosis) + …
[26] = group: systemic, systemic / clinical chemistry / alkaline phosphatase (alp/alk) / alkaline phosphatase (alp/alk) + systemic / clinical chemistry / bile acids…
[27] = systemic / organ weight / liver / absolute + systemic / organ weight / liver / relative to body weight
[28] = systemic / organ weight / liver / absolute + systemic / organ weight / liver / relative to body weight + systemic / clinical chemistry / …
[29] = group: developmental, developmental / developmental malformation / bone / incomplete ossification + systemic / in life observation / body weight / fetal weight
[30] = group: maternal, systemic / in life observation / body weight / body weight + systemic / in life observation / body weight / body weight gain + reproductive…
[31] = group: developmental, developmental / developmental malformation / limb / hyperflexion + systemic / in life observation / body weight / fetal weight + …
[32] = systemic / organ weight / liver / absolute
[33] = systemic / organ weight / liver / absolute + systemic / pathology microscopic / liver / adenocarcinoma + systemic / pathology microscopic / …
[34] = group: developmental, developmental / developmental malformation / bone / misaligned + developmental / developmental malformation / bone / ossification sites + …
[35] = group: maternal, reproductive / reproductive performance / resorptions / resorptions + systemic / in life observation / body weight / body weight + systemic…
[36] = group: developmental, developmental / developmental malformation / bone / delayed ossification + developmental / developmental malformation / bone / knobby + …
[37] = group: maternal, reproductive / reproductive performance / resorptions / resorptions + systemic / hematology / erythrocyte (rbc) count differential / …
[38] = group: developmental, developmental / developmental malformation / aortic arch / [other] + developmental / developmental malformation / aortic arch / malformation…
[39] = group: developmental, developmental / developmental malformation / bone / ossification sites + developmental / developmental malformation / bone / supernumerary…
[40] = group: maternal, reproductive / reproductive performance / resorptions / resorptions + reproductive / offspring survival early / litter size / litter size
[41] = group: developmental, systemic / in life observation / body weight / offspring (pup) weight gain + developmental / developmental malformation / aortic arch / …
[42] = group: maternal, reproductive / offspring survival early / live fetuses / live fetuses + reproductive / offspring survival early / litter size / litter size…
[43] = systemic / clinical chemistry / lactic acid dehydrogenase (ldh) / lactic acid dehydrogenase (ldh) + systemic / hematology / mean corpuscular…
[44] = systemic / pathology microscopic / liver / fatty change + systemic / pathology microscopic / liver / necrosis + systemic / urinalysis / …

Work on `O=S(=O)(C(Cl)(Cl)Cl)C(Cl)(Cl)Cl` [Bis(trichloromethyl)sulfone] yielded an LEL [1, 19] of 0.8 mg/kg/day, an NEL [1, 19] of under 0.8 mg/kg/day and an LOAEL [1, 20] of 5 mg/kg/day. For the same compound, the NOAEL [1, 20] was 2 mg/kg/day, the LEL [2, 21] was 50 mg/kg/day and the LOAEL [2, 21] was 50 mg/kg/day. It also gave an NEL [2, 21] of 10 mg/kg/day, an NOAEL [2, 21] of 10 mg/kg/day and an LEL [2, 22] of 10 mg/kg/day. For the same compound, the LOAEL [2, 22] was 10 mg/kg/day, the NEL [2, 23] was 2 mg/kg/day and the NOAEL [2, 23] was 2 mg/kg/day.

With `NC(=Nc1ccccc1)Nc1ccccc1` [1,3-Diphenylguanidine] the LEL [3, 24] was 577 mg/kg/day, the LOAEL [3, 24] was over 577 mg/kg/day and the NEL [3, 24] was 285 mg/kg/day. For the same compound, the NOAEL [3, 24] was at least 577 mg/kg/day, the LOAEL ([3]; group: systemic, systemic / in life observation / body weight / body weight + systemic / in life observation / clinical signs / drooping eyelids (ptosis)) was 231 mg/kg/day and the NEL [3, 25] was 38 mg/kg/day. It also gave an NOAEL [3, 25] of 114 mg/kg/day, an LEL ([3]; group: systemic, systemic / organ weight / liver / relative to body weight) of 75 mg/kg/day and an LEL [4] of 16 mg/kg/day. The LOAEL [4] was over 16 mg/kg/day, the NEL [4] was 4 mg/kg/day and the NOAEL [4] was at least 16 mg/kg/day. The LEL [5, 24] was 49 mg/kg/day, the LOAEL [5, 24] was over 184 mg/kg/day and the NEL [5, 24] was 32 mg/kg/day. It also gave an NOAEL [5, 24] of at least 184 mg/kg/day, an LEL [5, 26] of 17 mg/kg/day and an LOAEL [5, 26] of 95 mg/kg/day. For the same compound, the NEL [5, 26] was under 17 mg/kg/day and the NOAEL [5, 26] was 49 mg/kg/day.

`CC(C)Oc1cc(-n2nc(C(C)(C)C)oc2=O)c(Cl)cc1Cl` [Oxadiazon] showed an LEL [6] of 25 mg/kg/day, an LOAEL [6] of 25 mg/kg/day and an NEL [6] of under 25 mg/kg/day. The NOAEL [6] was under 25 mg/kg/day, the LEL [7, 27] was 20 mg/kg/day and the LOAEL [7, 27] was 20 mg/kg/day. It also gave an NEL [7, 28] of 5 mg/kg/day, an NOAEL [7, 28] of 5 mg/kg/day and an LEL [8] of 12 mg/kg/day. The LOAEL [8] was 12 mg/kg/day, the NEL [8] was under 12 mg/kg/day and the NOAEL [8] was under 12 mg/kg/day. The LEL [9] was 0.315 mg/kg/day, the LOAEL [9] was 10.6 mg/kg/day and the NEL [9] was under 0.315 mg/kg/day. The NOAEL [9] was 1.09 mg/kg/day, the LEL [10] was 100 mg/kg/day and the LOAEL [10] was 100 mg/kg/day. It also gave an NEL [10] of 25 mg/kg/day, an NOAEL [10] of 25 mg/kg/day and an LEL [11, 29] of 40 mg/kg/day. For the same compound, the LOAEL [11, 29] was 40 mg/kg/day, the NEL [11, 29] was 12 mg/kg/day and the NOAEL [11, 29] was 12 mg/kg/day. For the same compound, the LOAEL ([11]; group: maternal, systemic / in life observation / body weight / body weight + systemic / in life observation / body weight / body weight gain) was 40 mg/kg/day, the LEL [11, 30] was 40 mg/kg/day and the NEL [11, 30] was 12 mg/kg/day. It also gave an NOAEL [11, 30] of 12 mg/kg/day, an LEL [12, 31] of 180 mg/kg/day and an LOAEL [12, 31] of 180 mg/kg/day. For the same compound, the NEL [12, 31] was 60 mg/kg/day, the NOAEL [12, 31] was 60 mg/kg/day and the LEL [12, 22] was 60 mg/kg/day. The LOAEL [12, 22] was 60 mg/kg/day, the NEL [12, 23] was 20 mg/kg/day and the NOAEL [12, 23] was 20 mg/kg/day. It also gave an LEL [13, 32] of 4.8 mg/kg/day, an LOAEL [13, 32] of 4.8 mg/kg/day and an NEL [13, 33] of 0.5 mg/kg/day. It also gave an NOAEL [13, 33] of 0.5 mg/kg/day.

`COCCOCCO` [Diethylene glycol monomethyl ether] showed an LOAEL [14, 34] of over 5180 mg/kg/day, an NEL [14, 34] of 1000 mg/kg/day and an NOAEL [14, 34] of at least 5180 mg/kg/day. It also gave an LEL ([14]; group: developmental, developmental / developmental malformation / bone / ossification sites) of 1500 mg/kg/day, an LOAEL [14, 35] of over 5180 mg/kg/day and an NEL [14, 35] of 2240 mg/kg/day. The NOAEL [14, 35] was at least 5180 mg/kg/day, the LEL ([14]; group: maternal, systemic / in life observation / body weight / body weight + systemic / in life observation / food consumption / food consumption + …) was 3340 mg/kg/day and the LEL [15, 36] was 250 mg/kg/day. It also gave an LOAEL [15, 36] of over 750 mg/kg/day, an NEL [15, 36] of 50 mg/kg/day and an NOAEL [15, 36] of at least 750 mg/kg/day. The LEL [15, 37] was 750 mg/kg/day, the LOAEL [15, 37] was over 750 mg/kg/day and the NEL [15, 37] was 250 mg/kg/day. The NOAEL [15, 37] was at least 750 mg/kg/day, the LOAEL [16, 38] was over 2160 mg/kg/day and the NOAEL [16, 38] was at least 2160 mg/kg/day. For the same compound, the LEL [16, 39] was 720 mg/kg/day, the NEL [16, 39] was under 720 mg/kg/day and the NEL ([16]; group: maternal, reproductive / reproductive performance / resorptions / resorptions) was 720 mg/kg/day. It also gave an LEL [16, 40] of 2160 mg/kg/day, an LOAEL [16, 40] of over 2160 mg/kg/day and an NOAEL [16, 40] of at least 2160 mg/kg/day. It also gave an NEL ([17]; group: developmental, systemic / in life observation / body weight / offspring (pup) weight gain) of 200 mg/kg/day, an LOAEL [17, 41] of over 1800 mg/kg/day and an NOAEL [17, 41] of at least 1800 mg/kg/day. For the same compound, the LEL ([17]; group: developmental, systemic / in life observation / body weight / offspring (pup) weight gain + developmental / developmental malformation / bone / …) was 600 mg/kg/day, the LEL ([17]; group: maternal, reproductive / offspring survival early / live fetuses / live fetuses) was 600 mg/kg/day and the NEL ([17]; group: maternal, reproductive / offspring survival early / live fetuses / live fetuses + reproductive / offspring survival early / litter size / litter size) was 200 mg/kg/day. It also gave an LOAEL [17, 42] of over 1800 mg/kg/day, an NOAEL [17, 42] of at least 1800 mg/kg/day and an LOAEL [18, 43] of over 1000 mg/kg/day. It also gave an NOAEL [18, 43] of at least 1000 mg/kg/day, an LEL [18, 44] of 40 mg/kg/day and an NEL [18, 44] of under 40 mg/kg/day.
